Assay results reported in patent US8426447B2, “Spiro-tricyclic ring compounds as beta-secretase modulators and methods of use” (Amgen Inc., priority 2008, dated 2013).

Key:
[1] = target: T1, BACE1 (Homo sapiens, UniProt P56817); assay: In Vitro Enzymatic BACE FRET (Fluorescence Resonance Energy Transfer) Assay; assay type: biochemical
How it was run: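 Buffer: 0.05 M acetate, pH 4.2, 10% DMSO final, 100 uM genapol. Start: FRET substrate 50 nM. Incubation 1 h. Stop: Tris to neutral pH. Read: fluorescence.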

[2] = target: T1, BACE1; assay: In Vitro BACE Cell-based Assay (HEK cell assay): Aβ40 in conditioned medium of cells stably expressing Amyloid Precursor Protein, sandwich ELISA
How it was run: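 APP-expressing cells were cultured 24 h in DMEM/10% FBS, then treated 24 h with compounds in 10-point dose response (top 100 μM or 10 μM; 0.1% DMSO final). Secreted Aβ40 was quantified by sandwich ELISA (pAb40 capture, biotinylated 6E10 detection, Europium TRF); IC50 from percent inhibition versus concentration.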

[3] = Table II, read-out: BACE1 FRET assay
[4] = Table II, Aβ40, 24 h incubation, read-out: HEK cell assay
[5] = Table IV, class symbols, read-out: BACE1 FRET assay
[6] = Table IV, class symbols, read-out: HEK cell assay
[7] = in vitro BACE FRET enzyme assay, IC50 class symbols, read-out: BACE1 FRET assay
[8] = HEK cell-based assay, Aβ40 in conditioned medium, IC50 class symbols, read-out: HEK cell assay
[9] = HEK cells, read-out: HEK cell assay
[10] = Table III, IC50's in uM ranges, read-out: BACE1 FRET assay
[11] = Table III, IC50's in uM ranges, read-out: HEK cell assay

T1 sequence (P56817 46-501, species assumed): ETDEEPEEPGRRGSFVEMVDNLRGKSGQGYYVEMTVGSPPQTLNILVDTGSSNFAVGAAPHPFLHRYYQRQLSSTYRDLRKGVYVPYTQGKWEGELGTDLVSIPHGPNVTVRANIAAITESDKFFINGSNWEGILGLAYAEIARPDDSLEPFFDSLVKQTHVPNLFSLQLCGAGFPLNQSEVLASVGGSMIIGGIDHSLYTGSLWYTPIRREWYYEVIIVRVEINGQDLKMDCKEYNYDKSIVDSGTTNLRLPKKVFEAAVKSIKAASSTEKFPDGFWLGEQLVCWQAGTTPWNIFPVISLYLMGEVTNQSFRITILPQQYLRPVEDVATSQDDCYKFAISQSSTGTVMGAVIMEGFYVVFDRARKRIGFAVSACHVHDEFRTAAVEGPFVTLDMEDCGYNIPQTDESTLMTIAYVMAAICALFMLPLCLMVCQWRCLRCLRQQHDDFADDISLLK

## CC(C)(C)COc1ccc2c(c1)[C@]1(COC(N)=N1)c1cc(-c3ccoc3)ccc1O2 [Example 76, (4S)-2′-(2,2-dimethylpropoxy)-7′-(3-furanyl)spiro[1,3-oxazole-4,9′-xanthen]-2-amine]
[1]; [3]
  IC50: < 0.1 µM
[2]; [4]
  IC50: 1 to 5 µM

## CC(C)(C)COc1ccc2c(c1)[C@]1(COC(N)=N1)c1cc(-c3ccc(S(C)(=O)=O)cc3)ccc1O2 [compound 910]
[1]; [5]
  IC50: 1 to 5 µM
[2]; [6]
  IC50: 1 to 5 µM

## CC(C)CCCOc1nccc2c1[C@@]1(COC(N)=N1)c1cc(-c3cccnc3)ccc1O2 [compound 843]
[1]; [5]
  IC50: > 5 µM
[2]; [6]
  IC50: > 5 µM

## NC1=N[C@]2(CO1)c1cc(-c3cncnc3)ccc1Oc1c(F)cc(C3=CCOCC3)cc12 [compound 637]
[1]; [5]
  IC50: 1 to 5 µM
[2]; [6]
  IC50: 0.1 to 1 µM

## CC(C)OC1CN(c2ccc3c(c2)[C@]2(COC(N)=N2)c2cc(-c4cccnc4)ccc2O3)C1 [compound 384]
[1]; [7]
  IC50: < 0.1 µM
[2]; [8]
  IC50: < 0.1 µM

## CC(C)(C)C#Cc1ccc2c(c1)[C@]1(COC(N)=N1)c1cc(Cl)ncc1O2 [compound 846]
[1]; [5]
  IC50: 1 to 5 µM
[2]; [6]
  IC50: > 5 µM

## CC1(C)CN(c2cnc3c(c2)[C@]2(COC(N)=N2)c2cc(-c4cc(F)ccc4F)ccc2O3)CCO1 [compound 468]
[1]; read-out: BACE1 FRET assay
  IC50: < 0.1 µM
[2]; [9]
  IC50: < 0.1 µM

## NC1=N[C@@]2(CO1)c1cc(-c3cccnc3)ccc1Oc1ncc(C3=CCOCC3)cc12 [compound 664]
[1]; read-out: BACE1 FRET assay
  IC50: < 0.1 µM
[2]; read-out: HEK cell assay
  IC50: < 0.1 µM

## COc1ccc2c(c1)[C@@]1(COC(N)=N1)c1cc(-c3ccc(OCC4CC4)nc3)cnc1O2 [compound 668]
[1]; read-out: BACE1 FRET assay
  IC50: 0.1 to 1 µM
[2]; read-out: HEK cell assay
  IC50: 0.1 to 1 µM

## CC(C)(C)C#Cc1cnc2c(c1)[C@]1(COC(N)=N1)c1cc(-c3cnccn3)ccc1O2 [compound 654]
[1]; [5]
  IC50: < 0.1 µM
[2]; [6]
  IC50: < 0.1 µM

## NC1=N[C@@]2(CO1)c1cc(Oc3ccccn3)ccc1Oc1ncc(Br)cc12 [compound 936]
[1]; read-out: BACE1 FRET assay
  IC50: > 5 µM
[2]; read-out: HEK cell assay
  IC50: > 5 µM

## COC(C)(C)C#Cc1ccc2c(c1)[C@@]1(COC(N)=N1)c1cc(-c3ccc(C)cc3)cnc1O2 [compound 577]
[1]; [5]
  IC50: < 0.1 µM
[2]; [6]
  IC50: < 0.1 µM

## CCCc1ccc2c(c1)[C@@]1(COC(N)=N1)c1cc(-c3cncnc3)ccc1O2 [Example 53, (4S)-2′-propyl-7′-(5-pyrimidinyl)spiro[1,3-oxazole-4,9′-xanthen]-2-amine]
[1]; [3]
  IC50: < 0.1 µM
[2]; [4]
  IC50: 0.1 to 1 µM

## CC(C)(C)COc1ccc2c(c1C#N)[C@]1(COC(N)=N1)c1cc(-c3cccnc3)ccc1O2 [compound 943]
[1]; read-out: BACE1 FRET assay
  IC50: < 0.1 µM
[2]; read-out: HEK cell assay
  IC50: 0.1 to 1 µM

## Cc1ccc(-c2ccc3c(c2)[C@@]2(COC(N)=N2)c2cc(OCC(C)(C)C)ccc2O3)cn1 [Example 80, (4S)-2′-(2,2-dimethylpropoxy)-7′-(6-methyl-3-pyridinyl)spiro[1,3-oxazole-4,9′-xanthen]-2-amine]
[1]; [3]
  IC50: 0.1 to 1 µM
[2]; [4]
  IC50: 1 to 5 µM

## NC1=N[C@]2(CO1)c1cc(-c3ccc(OC(F)F)cc3)ccc1Oc1ccc(-c3cncnc3)cc12 [compound 773]
[1]; read-out: BACE1 FRET assay
  IC50: < 0.1 µM
[2]; read-out: HEK cell assay
  IC50: 0.1 to 1 µM

## CC(C)(O)Cc1ccc2c(c1)[C@]1(COC(N)=N1)c1cc(-c3cccnc3)ccc1O2 [compound 659]
[1]; [5]
  IC50: 0.1 to 1 µM
[2]; [6]
  IC50: 0.1 to 1 µM

## CC(C)(C)COc1ccc2c(c1)[C@@]1(COC(N)=N1)c1cc(-c3cncs3)ccc1O2 [compound 781]
[1]; read-out: BACE1 FRET assay
  IC50: < 0.1 µM
[2]; read-out: HEK cell assay
  IC50: 0.1 to 1 µM

## Cc1cc(-c2cc3c(cn2)Oc2ccc(-c4cccnc4F)cc2[C@@]32COC(N)=N2)ccn1 [compound 429]
[1]; BACE1 FRET assay (uM)
  IC50: < 0.1 µM
[2]; HEK cell assay (uM), HEK cells
  IC50: < 0.1 µM

## NC1=N[C@@]2(CO1)c1cc(-c3cccnc3)ccc1Oc1ccc(-c3cscn3)cc12 [compound 671]
[1]; read-out: BACE1 FRET assay
  IC50: < 0.1 µM
[2]; read-out: HEK cell assay
  IC50: < 0.1 µM

## NC1=N[C@@]2(CO1)c1cc(-c3ccc(F)nc3)ccc1Oc1cnc(-c3ccc(F)nc3)cc12 [compound 433]
[1]; read-out: BACE1 FRET assay
  IC50: < 0.1 µM
[2]; [9]
  IC50: 0.1 to 1 µM

## COCC#Cc1ccc2c(c1)[C@@]1(COC(N)=N1)c1cc(-c3cncnc3)ccc1O2 [156b]
[1]; [10]
  IC50: 0.1 to 1 µM
[2]; [11]
  IC50: 0.1 to 1 µM

## NC1=N[C@@]2(CO1)c1cc(-c3cccnc3)ccc1Oc1ccc(N3C[C@@H]4C[C@H]3CO4)cc12 [compound 564]
[1]; [5]
  IC50: < 0.1 µM
[2]; [6]
  IC50: < 0.1 µM

## NC1=N[C@@]2(CO1)c1cc(-c3cccnc3)ccc1Oc1cnc(N3CCCC3)cc12 [compound 493]
[1]; read-out: BACE1 FRET assay
  IC50: < 0.1 µM
[2]; [9]
  IC50: < 0.1 µM

## NC1=N[C@@]2(CO1)c1cc(-c3cccnc3)ccc1Oc1ccc(Cl)nc12 [compound 393]
[1]; [7]
  IC50: 0.1 to 1 µM
[2]; [8]
  IC50: 1 to 5 µM

## CC1(C#Cc2cnc3c(c2)[C@]2(COC(N)=N2)c2cc(-c4cc(Cl)ccc4F)ccc2O3)COC1 [compound 521, (5S)-7-(5-chloro-2-fluorophenyl)-3-((3-methyl-3-oxetanyl)ethynyl)spiro[chromeno[2,3-b]pyridine-5,4′-[1,3]oxazol]-2′-amine]
[1]; read-out: BACE1 FRET assay
  IC50: < 0.1 µM
[2]; [9]
  IC50: < 0.1 µM

## COc1ncccc1-c1ccc2c(c1)[C@@]1(COC(N)=N1)c1cc(C#CC(C)(C)OC)cnc1O2 [compound 806]
[1]; [5]
  IC50: < 0.1 µM
[2]; [6]
  IC50: < 0.1 µM

## CC(C)(O)COc1ccc2c(c1)[C@]1(COC(N)=N1)c1cc(-c3ccc(F)nc3)ccc1O2 [compound 222]
[1]; [10]
  IC50: < 0.1 µM
[2]; [11]
  IC50: < 0.1 µM

## CC(C)(C)COc1ccc2c(c1)[C@]1(COC(N)=N1)c1cc(C(=O)O)ccc1O2 [compound 861]
[1]; [5]
  IC50: 1 to 5 µM
[2]; [6]
  IC50: > 5 µM

## NC1=N[C@@]2(CO1)c1cc(C#CC3CC3)ccc1Oc1ncc(N3CCOCC3)cc12 [compound 607]
[1]; [5]
  IC50: < 0.1 µM
[2]; [6]
  IC50: < 0.1 µM

## CC(C)(O)COc1ccc2c(c1)[C@]1(COC(N)=N1)c1cc(Br)ccc1O2 [compound 210]
[1]; [10]
  IC50: 1 to 5 µM
[2]; [11]
  IC50: 1 to 5 µM

## CC(C)(F)COc1ccc2c(c1)[C@]1(COC=N1)c1cc(Br)c(N)nc1O2 [compound 171]
[1]; [10]
  IC50: 0.1 to 1 µM
[2]; [11]
  IC50: 1 to 5 µM

## CC(C)(C)COc1ccc2c(c1)[C@]1(COC(N)=N1)c1cc(N3CCCC3)ccc1O2 [compound 815]
[1]; [5]
  IC50: 0.1 to 1 µM
[2]; [6]
  IC50: 1 to 5 µM

## CC(C)(C#N)COc1cnc2c(c1)[C@]1(COC(N)=N1)c1cc(-c3ccccc3)ccc1O2 [compound 409]
[1]; [7]
  IC50: < 0.1 µM
[2]; [8]
  IC50: 0.1 to 1 µM

## CCCOc1cc2c(cc1F)Oc1ccc(-c3cccnc3)cc1[C@@]21COC(N)=N1 [compound 938]
[1]; read-out: BACE1 FRET assay
  IC50: < 0.1 µM
[2]; read-out: HEK cell assay
  IC50: < 0.1 µM

## Cc1ccc2c(c1)Oc1ccc(-c3cccc(Cl)c3F)cc1C21COC(N)=N1 (stereo not drawn) [Example 26, 2′-(3-chloro-2-fluorophenyl)-6′-methylspiro[1,3-oxazole-4,9′-xanthen]-2-amine]
[1]; Table 1, read-out: BACE1 FRET assay
  IC50: > 5 µM
[2]; Table 1, Aβ40, 24 h incubation, read-out: HEK cell assay
  IC50: 1 to 5 µM

## COc1ccc2c(c1)[C@]1(COC(N)=N1)c1cc(-c3cncnc3)cnc1O2 [Example 54, (5R)-7-methoxy-3-(5-pyrimidinyl)spiro[chromeno[2,3-b]pyridine-5,4′-[1,3]oxazol]-2′-amine]
[1]; [3]
  IC50: 1 to 5 µM
[2]; [4]
  IC50: > 5 µM

## Cc1occc1-c1ccc2c(c1)[C@@]1(COC(N)=N1)c1cc(OCC(C)(C)C)ccc1O2 [compound 739]
[1]; read-out: BACE1 FRET assay
  IC50: 0.1 to 1 µM
[2]; read-out: HEK cell assay
  IC50: 1 to 5 µM

## NC1=N[C@@]2(CO1)c1cc(-c3cccnc3F)ccc1Oc1c(F)cc(N3C[C@@H]4C[C@H]3CO4)cc12 [compound 416]
[1]; [7]
  IC50: < 0.1 µM
[2]; [8]
  IC50: < 0.1 µM

## Cn1cc(-c2ccc3c(c2)[C@]2(COC(N)=N2)c2cc(-c4cccnc4)ccc2O3)cn1 [compound 710]
[1]; read-out: BACE1 FRET assay
  IC50: < 0.1 µM
[2]; read-out: HEK cell assay
  IC50: < 0.1 µM

## CC(C)(C)OC(=O)/C=C/c1ccc2c(c1)[C@]1(COC(N)=N1)c1cc(Br)ccc1O2 [compound 996]
[1]; read-out: BACE1 FRET assay
  IC50: > 5 µM
[2]; read-out: HEK cell assay
  IC50: > 5 µM

## NC1=N[C@@]2(CO1)c1cc(-c3cccnc3F)ccc1Oc1ccc(C3CCOCC3)nc12 [compound 338]
[1]; [7]
  IC50: < 0.1 µM
[2]; [8]
  IC50: < 0.1 µM

## CC(C)(C)COc1ccc2c(c1)[C@]1(COC(N)=N1)c1cc(C3=CC4CCC3C4)ccc1O2 (stereo partly drawn) [compound 730]
[1]; read-out: BACE1 FRET assay
  IC50: < 0.1 µM
[2]; read-out: HEK cell assay
  IC50: 1 to 5 µM

## COC(=O)CN1CCN(c2cc3c(cn2)Oc2ccc(-c4cccnc4)cc2[C@@]32COC(N)=N2)CC1 [compound 438]
[1]; read-out: BACE1 FRET assay
  IC50: < 0.1 µM
[2]; [9]
  IC50: < 0.1 µM

## CC(C)NC(=O)c1ccc2c(c1)[C@@]1(COC(N)=N1)c1cc(OCC(C)(C)C)ccc1O2 [compound 703]
[1]; read-out: BACE1 FRET assay
  IC50: < 0.1 µM
[2]; read-out: HEK cell assay
  IC50: < 0.1 µM
